Results published in US20100095387A1, “METHODS AND REAGENTS FOR SCREENING NEW DRUGS AND FOR TREATING ION PUMP ASSOCIATED DISORDERS AND DISEASES” (priority 2005, published 2010).

Assays:
[1] = system: layer V neurons in acute cortical slices; experiment: Whole cell current clamp of layer V neurons in acute cortical slices; assay type: cell-based, mouse
α3Na+/K+-ATPase = α3Na+/K+-ATPase (Mus musculus, UniProt Q6PIC6); experiment: Na+ imaging (SBFI-AM) of cultured cortical cells; assay type: cell-based; details: fragment or ouabain alone; neurons

Structure (SMILES) | action potential frequency [1] [Hz] | membrane potential [1] [mV] | neuronal intracellular Na+ (α3Na+/K+-ATPase)
C=C(C)[C@H]1CN[C@H](C(=O)O)[C@H]1CC(=O)O [kainic acid, reference compound] | 0.6±0.2 | −56.2±1.3 | 
C[C@@H]1O[C@@H](O[C@H]2C[C@@H](O)[C@]3(CO)[C@H]4[C@H](O)C[C@]5(C)[C@@H](C6=CC(=O)OC6)CC[C@]5(O)[C@@H]4CC[C@]3(O)C2)[C@H](O)[C@H](O)[C@H]1O [ouabain, reference compound] |  |  | increase
